According to patent US20160251403A1, “PEPTIDE COMBINATIONS AND USES THEREOF IN TREATING DUST MITE ALLERGY” (ALK-ABELLO A/S, priority 2013, published 2016):
No end group written: not given here.

Experiments:
DQA10101-DQB10501 = DQA10101-DQB10501 (Homo sapiens, UniProt P01909+P01920, A157S/A45G/A70V/C70R/D89V/E106S/E118A/E183D/E77G/F83G/G63E/H151Q/H199R/H252R/H253Q/I129T/I235V/I88M/INS77G/K197Q/L107V/L117V/L119Y/L178F/L71W/L74F/L85Q/L91A/L98M/M46L/N214S/P87R/Q116E/Q256R/Q57E/Q76K/R102G/R240Q/R75S/R78G/S102Y/S185I/S41F/S97I/T103A/T109R/T121G/T122I/T172A/T86R/V148I/V68A/V73E/Y34C/Y58G/Y62H); assay: Competitive MHC class II binding assay, DQA10101-DQB10501; settings: positive binding at cutoff 1000 nM; read-out: HLA-DQA10101-DQB10501
DRB1_0101 = DRB1_0101 (Homo sapiens, UniProt P01903+P01911, A100R/D57E/F55L/F60I/F76Y/I96L/L162R/M171V/P40L/Q125E/R42F/V115G/Y59C); assay: Competitive MHC class II binding assay, DRB1_0101;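 further: competition against a radiolabeled probe peptide (0.1–1 nM) for purified HLA class II protein over 2–4 days, bound counts read after antibody capture, six competitor levels across 100,000-fold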
DRB1_0401 = DRB1_0401 (Homo sapiens, UniProt P01903+P01911, A100K/A169T/F76Y/I96L/K127E/L162R/M171V/N62H/P40V/Q125Y/R42H/S133A/S149N/S66Y/V115G/V209L/W38E); assay: Competitive MHC class II binding assay, DRB1_0401
DRB1_0405 = DRB1_0405 (Homo sapiens, UniProt P01903+P01911, A100R/A169T/D86S/F76Y/I96L/K127E/L162R/M171V/N62H/P40V/Q125Y/R42H/S133A/S149N/S66Y/V115G/V209L/W38E); assay: Competitive MHC class II binding assay, DRB1_0405
DRB1_0701 = DRB1_0701 (Homo sapiens, UniProt P01903+P01911, A100R/A102G/A103Q/D57E/D86V/E43K/F76Y/K127E/L162R/M171V/P40G/Q125H/Q99D/R33Q/R42Y/R54Q/S133A/S66F/T210M/V115G/Y107V/Y59L/Y89S); assay: Competitive MHC class II binding assay, DRB1_0701;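 further: displacement of a radiolabeled reference peptide from purified HLA class II protein, with complex-bound radioactivity counted after 2–4 days of incubation and six concentrations spanning a 100,000-fold range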
DRB1_0802 = DRB1_0802 (Homo sapiens, UniProt P01903+P01911, A100R/A103L/A169T/F76Y/H45Y/I96F/K41T/L162R/M171V/P40S/Q125H/Q178H/Q39Y/Q99D/R218S/R42G/S66Y/V115G/W38E); assay: Competitive MHC class II binding assay, DRB1_0802
DRB1_0901 = DRB1_0901 (Homo sapiens, UniProt P01903+P01911, A100R/A103E/D57H/D86V/F55Y/F60I/F76Y/I96F/K127E/L162R/M171V/P40D/Q125H/Q99R/R33Q/R42F/S133A/S66N/T210M/V115G/W38K/Y107V/Y59G/Y89S); assay: Competitive MHC class II binding assay, DRB1_0901;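 further: displacement of a radiolabeled probe peptide from purified HLA class II protein, bound counts read after two to four days incubation, six concentrations spanning 100,000-fold, unlabeled probe as reference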
DRB1_1501 = DRB1_1501 (Homo sapiens, UniProt P01903+P01911); assay: Competitive MHC class II binding assay, DRB1_1501
DRB1_0301 = DRB1_0301 (Homo sapiens, UniProt P01903+P01911, A100K/A102G/A103R/A169T/F55Y/I96L/K41T/L162R/M171V/P40S/Q125H/Q178H/Q39Y/R42S/S66N/T106N/T262R/W38E/Y61H); assay: Competitive MHC class II binding assay, DRB1_0301
DRB1_1101 = DRB1_1101 (Homo sapiens, UniProt P01903+P01911, A100R/A169T/A87E/I96F/K41T/L162R/M171V/P40S/Q125H/Q178H/Q39Y/Q99D/R42S/S66Y/T262R/V115G/W38E); assay: Competitive MHC class II binding assay, DRB1_1101
DRB1_1201 = DRB1_1201 (Homo sapiens, UniProt P01903+P01911, A100R/A169T/D57E/D86V/F55L/H45Y/K41T/L162R/M171V/P40S/Q125H/Q178H/Q39Y/Q99D/R42G/S66L/T262R/V114A/V67L/W38E/Y59H/Y61H/Y89S); assay: Competitive MHC class II binding assay, DRB1_1201
DRB1_1302 = DRB1_1302 (Homo sapiens, UniProt P01903+P01911, A100E/A169T/K41T/L162R/M171V/P40S/Q125H/Q178H/Q39Y/Q99D/R42S/S66N/T262R/V115G/W38E/Y61H); assay: Competitive MHC class II binding assay, DRB1_1302;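 further: purified HLA class II protein incubated two to four days with a radiolabeled reference binder and test peptide at six concentrations over a 100,000-fold range, complex-bound radioactivity counted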
DRB4_0101 = DRB4_0101 (Homo sapiens, UniProt P01903+P13762, G164S); assay: Competitive MHC class II binding assay, DRB4_0101
DRB5_0101 = DRB5_0101 (Homo sapiens, UniProt P01903+Q30154); assay: Competitive MHC class II binding assay, DRB5_0101
DPA10103-DPB10201 = molecular target: T1, DPA10103-DPB10201 (Homo sapiens, UniProt P04440+P20036, A65V/A84D/A85E/K98E); assay: Competitive MHC class II binding assay, DPA10103-DPB10201
T1 sequence (P20036 29-260): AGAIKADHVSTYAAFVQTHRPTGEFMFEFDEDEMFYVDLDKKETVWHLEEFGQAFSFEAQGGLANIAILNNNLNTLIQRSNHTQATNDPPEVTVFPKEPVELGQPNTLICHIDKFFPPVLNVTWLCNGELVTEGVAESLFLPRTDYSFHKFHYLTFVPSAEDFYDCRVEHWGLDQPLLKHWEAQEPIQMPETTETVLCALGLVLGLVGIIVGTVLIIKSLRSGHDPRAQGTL
T1 sequence (P04440 30-258 A65V/A84D/A85E/K98E): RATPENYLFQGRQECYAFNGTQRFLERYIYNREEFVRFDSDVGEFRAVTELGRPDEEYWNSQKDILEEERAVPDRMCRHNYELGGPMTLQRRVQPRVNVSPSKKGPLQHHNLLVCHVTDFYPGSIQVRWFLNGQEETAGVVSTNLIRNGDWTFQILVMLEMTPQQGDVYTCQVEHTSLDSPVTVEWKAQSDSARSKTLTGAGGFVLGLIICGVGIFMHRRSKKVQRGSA

DPA10103-DPB10301 = molecular target: T2, DPA10103-DPB10301 (Homo sapiens, UniProt P04440+P20036, A65V/A84D/A85E/E86D/F38Y/G113D/G114E/G40L/I94L/L37V/M105V/M116V/P115A/R125K/T199I); assay: Competitive MHC class II binding assay, DPA10103-DPB10301
T2 sequence (P20036 29-260): T1 sequence (P20036 29-260)
T2 sequence (P04440 30-258 L37V/F38Y/G40L/A65V/A84D/A85E/E86D/I94L/M105V/G113D/G114E/P115A/M116V/R125K/T199I/V234M): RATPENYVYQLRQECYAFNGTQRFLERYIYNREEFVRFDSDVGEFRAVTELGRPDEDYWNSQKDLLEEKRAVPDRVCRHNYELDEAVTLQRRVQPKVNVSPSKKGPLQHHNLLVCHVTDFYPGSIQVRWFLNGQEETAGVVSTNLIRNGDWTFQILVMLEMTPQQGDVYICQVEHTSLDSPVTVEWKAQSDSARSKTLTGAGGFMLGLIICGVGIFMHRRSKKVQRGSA

DRB3_0202 = DRB3_0202 (Homo sapiens, UniProt P01903+P79483, A212P/D57E/F66Y/L67A/R103Q/R218S/R40L/S89Y/T80R/V86D/Y55F/Y59H); assay: Competitive MHC class II binding assay, DRB3_0202
DQA10501-DQB10201 = DQA10501-DQB10201 (Homo sapiens, UniProt P01909+P01920, A45G/A70V/D89A/E106A/E77G/E98D/H199R/L107V/N214S/P84L/P87L/T103K/T109R/T172A/T60S/V78E/V99I/Y58L/Y62S/Y69I/Y79F); assay: Competitive MHC class II binding assay, DQA10501-DQB10201
[1] = Solubility of peptides in aqueous solutions at different pH (visual inspection, OD, HPLC); assay type: physicochemical; settings: Table 11a; evaluated by visual inspection
Excerpt: This example describes modifications of parent peptides to improve the aqueous solubility, in particular to increase the solubility in an aqueous solution having pH in a physiologically acceptable range, e.g. from 6 to 8. Solubility is closely related to the ratio between hydrophilic and hydrophobic amino acid residues and the net charge state of the peptide. Peptides have zero net charge at pH=pI, and would be expected to show the lowest solubility at this pH. […] The solubility of these peptides was increased at pH values outside the physiological range (data not shown).
Peptides were tested for their ability to dissolve in aqueous solutions at different pH values. In short, each of the peptides were dissolved in water (pH about 5-6), hydrochloride solution at pH 2 (10 mM HCl), acetate buffer with pH 5 (20 mM acetate and 140 mM sodium chloride), phosphate buffer with pH 7 (20 mM phosphate and 140 mM sodium chloride) or bistrispropate buffer with pH 9 (20 mM bitrispropane and 140 mM sodium chloride, respectively, to produce a final molar concentration of the peptide of about 0.25 mM or 1 mM. Optionally, about 20% DMSO may be part of the solution. For comparison reasons, peptides were also dissolved in acetonitrile or DMSO. The solutions were inspected visually before and after centrifugation for turbidity, presence of particles/aggregates. In addition, presence of turbidity/particles/aggregates were detected by optical density (OD), but might also be detected by size-exclusion chromatography. Sub-visual particles may also be detected by dynamic light scattering (DLS) analysis. The solubility and stability of each peptide were also investigated using HPLC, e.g. RP-HPLC. For example, each of the solutions were injected onto the HPLC and the peak height or peak area of each of the peptides were compared to the corresponding peptide of a chromatogram of peptides dissolved in acetonitrile or DMSO—as peptides were assumed to be fully dissolved and stable in these solvents.

DRB3_0101 = DRB3_0101 (Homo sapiens, UniProt P01903+P79483); assay: Competitive MHC class II binding assay, DRB3_0101

Sequence	IC50 (DQA10101-DQB10501)	IC50 (DRB1_0101)	IC50 (DRB1_0401)	IC50 (DRB1_0405)	IC50 (DRB1_0701)	IC50 (DRB1_0802)	IC50 (DRB1_0901)	IC50 (DRB1_1501)	IC50 (DRB1_0301)	IC50 (DRB1_1101)	IC50 (DRB1_1201)	IC50 (DRB1_1302)	IC50 (DRB4_0101)	IC50 (DRB5_0101)	IC50 (DPA10103-DPB10201)	IC50 (DPA10103-DPB10301)	IC50 (DRB3_0202)	IC50 (DQA10501-DQB10201)	Solubility at pH 7 [1]	IC50 (DRB3_0101)
ATESAYLAYRNTSLD [pep-022]	< 1 µM	< 1 µM	< 1 µM	< 1 µM	< 1 µM	< 1 µM	< 1 µM	< 1 µM	–	–	–	–	–	–	–	–	–	–	–	–
DLRQMRTVTPIRMQGGSGS [HDM203B, reference compound]	–	< 1 µM	< 1 µM	< 1 µM	< 1 µM	< 1 µM	< 1 µM	< 1 µM	< 1 µM	< 1 µM	< 1 µM	< 1 µM	< 1 µM	< 1 µM	< 1 µM	< 1 µM	–	–	–	–
HRGKPFQLEAVFEANQNTKT [pep-091]	< 1 µM	< 1 µM	–	< 1 µM	–	< 1 µM	< 1 µM	–	–	–	–	< 1 µM	< 1 µM	–	< 1 µM	–	< 1 µM	< 1 µM	–	–
KGQQYDIKYTWNVPKIA [pep-126]	< 1 µM	< 1 µM	–	–	< 1 µM	< 1 µM	< 1 µM	–	–	–	–	< 1 µM	–	< 1 µM	–	< 1 µM	< 1 µM	–	Clear	–
KSENVVVTVKLVGDNGVLAS [pep-109]	–	–	< 1 µM	–	–	< 1 µM	–	–	< 1 µM	< 1 µM	–	< 1 µM	< 1 µM	–	–	–	–	–	–	< 1 µM
QESYYRYVAREQSSRR [pep-122]	–	< 1 µM	< 1 µM	< 1 µM	< 1 µM	< 1 µM	< 1 µM	–	–	< 1 µM	< 1 µM	–	–	< 1 µM	–	< 1 µM	< 1 µM	–	–	–
QESYYRYVAREQSSRRPNAQ [pep-050]	–	–	< 1 µM	–	–	–	–	–	< 1 µM	< 1 µM	–	–	–	< 1 µM	–	< 1 µM	–	–	–	–
VQESYYRYVAREQSSRRPNAQ [pep-124]	–	–	–	–	< 1 µM	< 1 µM	–	–	–	< 1 µM	–	–	–	< 1 µM	< 1 µM	< 1 µM	–	–	–	–
